Data reported in patent US20260234144A1 (TAY THERAPEUTICS LIMITED, priority 2023, published 2026).

Key:
[1] = test system: R213X mutation in the p53 gene, HDQ-P1 cells; experiment: Read-through of R213X mutation in HDQ-P1 cells: truncated and full-length p53 by automated capillary electrophoresis western analysis; type: cell-based; conditions: Homo sapiens; for EC (50% of 200 uM G418 response): pC50% NMD: production of truncated p53, concentration giving 50% of the response of 200 μM G418, 24 h; for EC (100% of 200 uM G418 response): pC100% RT: production of full-length p53, concentration giving the same response as 200 μM G418, 24 h
Method: The ability of compounds to promote read-through in cells was assessed using the HDQ-P1 cell line which contain the R213X mutation in the p53 gene. […] Changes in the protein levels of p21, a direct downstream target of p53, were also determined as evidence of functional p53 protein production.
HDQ-P1 cells (R213X) were treated with DMSO (0.3%), or test article for 24 h at various concentrations. Cells were washed once with ice cold 1×PBS and lysed in M-Per protein extraction reagent (ThermoFisher), Benzonase® Nuclease and protease inhibitor mixture (Roche) centrifuged at 4° C. for 15 min at 16 000×g, the supernatants, termed cell extracts, were collected and total proteins were quantified with Bradford protein assay kit (ThermoFisher). Briefly, mixtures of cell lysates (protein concentration 0.5 mg/mL) and the fluorescent master mix were heated at 95° C. for 5 min. […] Signals were generated using BioTechne anti-mouse detection module and anti-rabbit NIR detection module. […] As an additional loading control, total protein levels were assessed with the ProteinSimple protein normalisation module. The data were acquired and analysed using the inbuilt Compass software (ProteinSimple) with the high dynamic range detection profile, which uses multiple substrate injections and exposure times. Electropherograms were converted to pseudo-blots and presented in figures for ease of visualization.
Concentration effect curves for both the production of truncated and full-length p53 were analysed using non-linear regression using the CDD Vault from Collaborative Drug Discovery (Burlingame, CA). […] The bottom and top of the curves were constrained to 0 and the maximum measured response respectively. From the fitted curves, the software derived C100% or C50% values (the concentration giving the same or 50% of the response of 200 μM G418) for each compound. The negative logarithm of C50% or C100% is reported as pC50% NMD or pC100% RT for the production of truncated or full-length p53 respectively (Table 2).

[2] = test system: R223X stop codon in the mutated luciferase gene, ADXC8 luciferase reporter cell line; experiment: cells; type: cell-based; conditions: 24 h, ADXC8 cells, 24 hours; for Emax: read-out: Fold Over Control, maximum fold response relative to 200 μM G418; for EC (100% of 200 uM G418 response): read-out: pC100%, negative logarithm of the concentration giving the same response as 200 μM G418

Row | SMILES | EC (50% of 200 uM G418 response) [1] | EC (100% of 200 uM G418 response) [1] | Emax [2] | EC (100% of 200 uM G418 response) [2]
1 | CN1CCC(Nc2nc(N)c3c4c(c(-c5ccccc5)nc3n2)CCC4)CC1 [Example 45, N^3-(1-methylpiperidin-4-yl)-6-phenyl-8,9-dihydro-7H-cyclopenta[4,5]pyrido[2,3-d]pyrimidine-1,3-diamine] | 1 to 10 µM | 1 to 10 µM | 100 to 3000% | 0.1 to 1 µM
2 | Cc1c(Cl)c(-c2ccccc2)nc2nc(NC3CCN(C)CC3)nc(N)c12 [Example 48, 6-chloro-5-methyl-N2-(1-methylpiperidin-4-yl)-7-phenylpyrido[2,3-d]pyrimidine-2,4-diamine] | 1 to 10 µM | 1 to 10 µM | – | 1 to 10 µM
3 | Cc1cc(C)c2c(N)nc(N[C@@H]3CCCNC3)nc2n1 [Example 225, (R)-5,7-dimethyl-N^2-(piperidin-3-yl)pyrido[2,3-d]pyrimidine-2,4-diamine] | 0.1 to 1 µM | 1 to 10 µM | – | 0.1 to 1 µM
4 | CNc1nc(N[C@H]2CNC[C@@H]2OC)nc2nc(C)cc(C)c12 [Example 227, N^2-((3S,4S)-4-methoxypyrrolidin-3-yl)-N^4,5,7-trimethylpyrido[2,3-d]pyrimidine-2,4-diamine] | 1 to 10 µM | 1 to 10 µM | – | 0.1 to 1 µM
5 | CNc1nc(N[C@H]2CN(C)C[C@@H]2OC)nc2nc(C)cc(C)c12 [Example 228, N^2-((3S,4S)-4-methoxy-1-methylpyrrolidin-3-yl)-N^4,5,7-trimethylpyrido[2,3-d]pyrimidine-2,4-diamine] | 0.1 to 1 µM | 1 to 10 µM | 100 to 3000% | 0.1 to 1 µM
6 | CNc1nc(N[C@H]2CN(C)C[C@H]2F)nc2nc3c(c(C)c12)CCC3 [Example 233, N^2-((3S,4R)-4-fluoro-1-methylpyrrolidin-3-yl)-N^4,5-dimethyl-7,8-dihydro-6H-cyclopenta[5,6]pyrido[2,3-d]pyrimidine-2,4-diamine] | 0.1 to 1 µM | – | 100 to 3000% | 0.1 to 1 µM
7 | CCNc1nc(N[C@@H]2CCN(C)C2)nc2nc3c(c(C)c12)CCC3 [Example 234, (R)—N^4-ethyl-5-methyl-N^2-(1-methylpyrrolidin-3-yl)-7,8-dihydro-6H-cyclopenta[5,6]pyrido[2,3-d]pyrimidine-2,4-diamine] | 0.1 to 1 µM | 0.1 to 1 µM | – | 0.1 to 1 µM
8 | CNc1nc(N[C@@H]2CCNC2)nc2nc(C)c3c(c12)CCC3 [Example 304] | 1 to 10 µM | 1 to 10 µM | – | 0.1 to 1 µM
9 | CCNc1nc(NC2CCN(C)CC2)nc2nc(C)cc(C)c12 [Example 322] | 1 to 10 µM | 1 to 10 µM | – | 0.1 to 1 µM
10 | CNc1nc(N[C@H]2CN(C)C[C@@H]2O)nc2nc(C)cc(C)c12 [Example 338] | 1 to 10 µM | – | 100 to 3000% | 1 to 10 µM
11 | CNc1nc(N[C@H]2CNC[C@H]2F)nc2nc3c(c(C)c12)CCC3 [Example 343] | 1 to 10 µM | 1 to 10 µM | 100 to 3000% | 0.1 to 1 µM
12 | CNc1nc(N[C@H]2CN(C)C[C@@H]2F)nc2nc3c(c(C)c12)CCC3 [Example 362] | 0.1 to 1 µM | 1 to 10 µM | 100 to 3000% | 1 to 10 µM
13 | CNc1nc(N[C@H]2CN(C)C[C@@H]2O)nc2nc(C)c3c(c12)CCC3 [Example 363] | 0.1 to 1 µM | 1 to 10 µM | 100 to 3000% | 0.1 to 1 µM
14 | CCNc1nc(N[C@@H]2CCN(C)C2)nc2nc(C)c3c(c12)CCC3 [Example 396] | 1 to 10 µM | 1 to 10 µM | – | 0.1 to 1 µM
15 | CNc1cc(N[C@H]2CN(C)C[C@H]2F)nc2nc3c(c(C)c12)CCC3 [Example 422] | 0.1 to 1 µM | 0.1 to 1 µM | – | 0.1 to 1 µM
16 | CNc1nc(N[C@H]2CN(C)C[C@@H]2OC)nc2nc3c(c(C)c12)CCC3 [Example 423] | 0.1 to 1 µM | 0.1 to 1 µM | – | 0.01 to 0.1 µM
